# Source: US6417220B2, “Mitochondrial membrane stabilizer” (Daiichi Pharmaceutical Co., Ltd., priority 1996, dated 2002)
# Columns and labels:
# NG108-15 cells [1] = experiment: Determination of the intracellular Ca2+ concentration (fura2-AM fluorescence ratio); assay type: cell-based
# Text: The present invention will be explained more specifically by referring to the following examples. However, the scope of the present invention is not limited to these examples. The test procedure in the examples was according to the method of Hare et al. (Hare, M. F., et. al., JPET, 266, pp.1626-1635, 1993) unless otherwise indicated. In the examples, “Nefiracetam” means 2-oxo-1-pyrrolidinylacetic acid 2,6-dimethylanilide, and “Ro5-4864” means the mitochondrias benzodiazepine receptor agonist, (7-chloro-5-(4-chlorophenyl)-1,3-dihydro-1-methyl-2H-1,4-benzodiazepin-2-one: TIPS, December, pp. 506-511, 1986).
# Changes in the intracellular Ca^2+ concentration caused by Ro5-4864 was studied. Cultured cells (NG108-15 cells: nerve cell x neuroglia cell hybrid) were cultured in DMEM culture medium, and further cultured in Flexiperm Disc (Heraeus Biotechnology) provided with a cover glass and used in the following described below. The cultured NG 108-15 cells were added with Ro5-4864 at final concentration of […]. A fluorescent remedicament, fura2-AM (1-(6-amino-2-(5-carboxy-2-oxazoly-5-benzofuranyloxy)-2-(2-amino-5-methylphenoxy)-ethane-N,N,N′,N′-teraacetic acid, pentaacetoxymethyl ester, Dojindo Laboratories) was dissolved in DMSO (Dimethylsulfoxide, Nakarai Chemical) to prepare a 1 mM solution, and this solution was diluted 200 times with HBS (Herpes-saline solution, composition: NaCl; 130 mM; KCl: 5.4 mM; CaCl2: 1.8 mM; MgSO4: 0.8 mM; D-glucose: 20 mM; Na^+-HEPES; 20 mM, pH 7.3) to prepare a fluorescent reagent solution (final concentration of fra2-AM: 5 μM).
# For the determination of intracellular Ca^2+ concentrations, the culture medium was removed from the Petri dish where the NG108-15 cells were cultured, and the dish was washed twice with HBS. The cultured cells were added with the 5 μM fura2-AM solution prepared above, put in a carbon dioxide gas incubator for 30 minutes, and then washed with HBS five times to remove the added fura2-AM solution. Finally, 1 ml of HBS was added to the Flexiperm, and the intracellular Ca^2+ concentration was measured by ARGUS-50/CA (Hamamatsu Photonics). According to this measurement, the fluorescence of Ca^2+-bound type fura-2 emitted at an excitation wavelength of 340 nm and the fluorescence of Ca^2+-free type fura-2 emitted at an excitation wavelength of 380 nm were measured as a pair at a constant interval for the fura-2 loaded cultured cells, and their relative ratio (ratio of fluorescence intensity) was used to analyze the intracellular Ca^2+ dynamics (concentration). An increase in the 340 nm excited fluorescence due to the binding of intracellular calcium ions to the fura2-AM, and a decrease in the 380 nm excited fluorescence were recorded by imaging and the ratio of fluorescence intensity between the fluorescence images was obtained.
# NG108-15 cells [2] = experiment: Determination of the mitochondrial membrane potential (Rhodamine 123 fluorescence); assay type: cell-based
# [3] = male mouse, p.o.; cited from earlier work
compound,measurement,setting,value
"CN(C(=O)Cn1c(=O)n2c(Br)c(-c3cccc(Cl)c3)nc2c2ccccc21)c1ccccc1 [NCS-1044-90, 2-(3-Chlorophenyl)-3-bromo-6-(N-methyl-N-phenylacetamido)-5-oxo-5,6-dihydroimidazo[1,2-c]quinazoline]",change in intracellular Ca2+ concentration on addition of Ro5-4864,"NG108-15 cells [1]; Ro5-4864 100 μM applied to cells treated beforehand with NCS-1044-90 10 μM, FIG. 9",only a very small elevation
same,change in intracellular mitochondrial membrane potential,"NG108-15 cells [2]; NCS-1044-90 10 μM alone, FIG. 10",No change
same,change in intracellular mitochondrial membrane potential on addition of Ro5-4864,"NG108-15 cells [2]; Ro5-4864 50 μM added to cells treated with NCS-1044-90 10 μM, FIG. 10",only a very small elevation
same,change in intracellular mitochondrial membrane potential on further addition of Ro5-4864,"NG108-15 cells [2]; further treatment with Ro5-4864 100 μM, cells treated with NCS-1044-90 10 μM, FIG. 10",slight and gentle elevation
"Cc1cccc(C)c1NC(=O)CN1CCCC1=O [Nefiracetam, 2-oxo-1-pyrrolidinylacetic acid 2,6-dimethylanilide]",change in intracellular Ca2+ concentration,"NG108-15 cells [1]; Nefiracetam 50 μM alone, after washing, FIG. 5",no change
same,change in intracellular Ca2+ concentration on addition of Ro5-4864,"NG108-15 cells [1]; Ro5-4864 25 μM in the presence of Nefiracetam 50 μM, FIG. 5",almost no change
same,acute toxicity,[3],"2,005 mg/kg"
same,change in mitochondrial membrane potential,"NG108-15 cells [2]; Nefiracetam 50 μM alone, FIG. 6",no change
same,change in mitochondrial membrane potential on addition of Ro5-4864,"NG108-15 cells [2]; Ro5-4864 25 μM in the presence of Nefiracetam 50 μM, FIG. 6",almost no change
same,depolarizing effect of Ro5-4864 on mitochondrial membranes,"NG108-15 cells [2]; Ro5-4864 50 μM in the presence of Nefiracetam, FIG. 6",weak
"CN1C(=O)CN=C(c2ccc(Cl)cc2)c2cc(Cl)ccc21 [Ro5-4864, 7-chloro-5-(4-chlorophenyl)-1,3-dihydro-1-methyl-2H-1,4-benzodiazepin-2-one]",change in intracellular Ca2+ concentration,"NG108-15 cells [1]; Ro5-4864 25 μM alone, FIG. 5, first peak",elevation
same,change in intracellular Ca2+ concentration,"NG108-15 cells [1]; Ro5-4864 50 μM alone, FIG. 7, first peak",elevation
same,change in intracellular Ca2+ concentration,"NG108-15 cells [1]; Ro5-4864 50 μM applied after bradykinin and caffeine treatment (endoplasmic reticulum Ca2+ depleted), FIG. 3",markedly elevated
same,change in intracellular Ca2+ concentration,"NG108-15 cells [1]; Ro5-4864 alone, FIG. 1",sharply increases
same,change in mitochondrial membrane potential,"NG108-15 cells [2]; Ro5-4864 50 μM alone, FIG. 2",remarkably decreased
same,change in mitochondrial membrane potential,"NG108-15 cells [2]; Ro5-4864 50 μM applied after caffeine and bradykinin, FIG. 4",remarkable decrease
"Cn1c(=O)c2c(ncn2C)n(C)c1=O [caffeine, reference compound]",change in mitochondrial membrane potential,"NG108-15 cells [2]; caffeine 10 μM and bradykinin 1 μM applied, FIG. 4",no alteration
